Laboratory results: ChEMBL document CHEMBL4627368, “Acylhydrazones as isoniazid derivatives with multi-target profiles for the treatment of Alzheimer's disease: Radical scavenging, myeloperoxidase/acetylcholinesterase inhibition and biometal chelation” (Bioorg Med Chem, 2020)
Activity calls are given as the source filed them. The rule behind the calls is not given here.

Legend:
[1] = Antioxidant activity assessed as DPPH radical scavenging activity at 100 uM after 30 mins (reference value: 1.9 +/- 1.2%); type: functional
[2] = Antioxidant activity assessed as DPPH radical scavenging activity after 30 mins; type: functional
Rattus norvegicus = species: Rattus norvegicus; experiment: Inhibition of rat bone marrow myeloperoxidase using H2O2 as substrate at 10 uM after 20 mins by TMB based method (reference value: - 1.4 +/- 12.7%)
[3] = biological target: Acetylcholinesterase (Electrophorus electricus) (UniProt O42275); experiment: Inhibition of Electrophorus electricus AChE at 100 uM using acetylthiocholine iodide as substrate preincubated for 30 mins followed by substrate addition and measured after 10 mins by Ellman's method
[4] = Inhibition of rat bone marrow myeloperoxidase using H2O2 as substrate after 20 mins by TMB based method
[5] = Metal chelating activity assessed as compound-Ca2+ complex formation at 20 uM in presence of CaCl2 after 2 hrs by UV-visible spectrophotometric analysis
[6] = Metal chelating activity assessed as compound-Cu2+ complex formation at 20 uM in presence of Cucl2 after 2 hrs by UV-visible spectrophotometric analysis
[7] = Metal chelating activity assessed as compound-Mg2+ complex formation at 20 uM in presence of MgCl2 after 2 hrs by UV-visible spectrophotometric analysis
[8] = Metal chelating activity assessed as compound-Zn2+ complex formation at 20 uM in presence of ZnCl2 after 2 hrs by UV-visible spectrophotometric analysis
[9] = Metal chelating activity assessed as compound-Fe2+ complex formation at 20 uM in presence of FeCl2 after 2 hrs by UV-visible spectrophotometric analysis
[10] = Metal chelating activity assessed as compound-Fe2+ complex stoichiometry ratio of 2:1 at 20 uM in presence of FeCl2 after 2 hrs by Job's plot analysis
[11] = Metal chelating activity assessed as compound-Zn2+ complex stoichiometry ratio of 2:1 at 20 uM in presence of ZnCl2 after 2 hrs by Job's plot analysis
[12] = biological target: Acetylcholinesterase (Electrophorus electricus) (UniProt O42275); experiment: Non-competitive mixed inhibition of Electrophorus electricus AChE using acetylthiocholine iodide as substrate preincubated for 30 mins followed by substrate addition and measured after 10 mins by Lineweaver-Burk plot analysis

Acetylcholinesterase (Electrophorus electricus), sequence (O42275 24-633 limits assumed): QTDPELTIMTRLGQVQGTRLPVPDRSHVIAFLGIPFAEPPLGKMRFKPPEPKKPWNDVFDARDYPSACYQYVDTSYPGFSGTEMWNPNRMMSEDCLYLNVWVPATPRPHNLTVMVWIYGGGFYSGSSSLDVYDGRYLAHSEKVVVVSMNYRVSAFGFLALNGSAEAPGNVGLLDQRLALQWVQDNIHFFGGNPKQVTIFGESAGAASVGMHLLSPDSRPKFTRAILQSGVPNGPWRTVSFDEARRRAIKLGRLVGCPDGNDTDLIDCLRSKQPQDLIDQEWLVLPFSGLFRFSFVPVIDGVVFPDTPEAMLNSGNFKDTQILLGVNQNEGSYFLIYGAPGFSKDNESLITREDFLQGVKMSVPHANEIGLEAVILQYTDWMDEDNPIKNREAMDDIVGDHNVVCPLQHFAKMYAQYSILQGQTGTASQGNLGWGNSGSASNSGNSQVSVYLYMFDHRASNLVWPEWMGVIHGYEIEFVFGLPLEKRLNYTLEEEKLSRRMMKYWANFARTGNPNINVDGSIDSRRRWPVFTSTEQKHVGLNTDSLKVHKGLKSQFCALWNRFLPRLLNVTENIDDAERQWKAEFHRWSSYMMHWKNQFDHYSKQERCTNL

SMILES | Activity [1] [%] | inhibition (Rattus norvegicus) [%] | inhibition [3] [%] | IC50 [4] [µM] | other results
COc1cc(/C=N/NC(=O)c2ccncc2)ccc1O [FTIVAZIDE] | 76.7 | 17.3 | 23.1 | – | IC50 [2]: 33.6 µM
NNC(=O)c1ccncc1 [ISONIAZID] | 91.3 | 99 | 5.8 | 3.9 | IC50 [2]: 22.9 µM
COc1ccc(/C=N/NC(=O)c2ccncc2)cc1 | 2.4 | 6 | 8 | – | –
O=c1c(O)c(-c2ccc(O)c(O)c2)oc2cc(O)cc(O)c12 [QUERCETIN] | 96.3 | 96.3 | – | – | IC50 [2]: 15.3 µM
O=C(N/N=C/c1ccc(Cl)c(Cl)c1)c1ccncc1 | 3.9 | -2.4 | 14 | – | –
O=C(N/N=C/c1cc(Br)ccc1O)c1ccncc1 | 3.9 | 90 | 6.8 | 4.3 | –
O=C(N/N=C/c1ccc([N+](=O)[O-])cc1)c1ccncc1 | 2.5 | 32 | 12.7 | – | –
O=C(N/N=C/c1cccc([N+](=O)[O-])c1)c1ccncc1 | 2 | -10 | 36.2 | – | –
O=C(N/N=C/c1ccccn1)c1ccncc1 | -0.6 | 0.3 | 24.5 | – | –
CCN(C)C(=O)Oc1cccc([C@H](C)N(C)C)c1 | 0.2 | 17.1 | 59.6 | – | –
O=C(N/N=C/c1cc(O)ccc1O)c1ccncc1 | 92.4 | 100 | 0.3 | 4.8 | IC50 [2]: 18.3 µM
O=C(N/N=C/c1ccccc1)c1ccncc1 | 3.3 | 5.1 | 16.5 | – | –
CN(C)c1ccc(/C=N/NC(=O)c2ccncc2)cc1 [N'-(4-DIMETHYLAMINOBENZYLIDENE)ISONICOTINOHYDRAZIDE] | 6.3 | 96.1 | 6.9 | 1.4 | –
O=C(N/N=C/c1ccc(O)cc1)c1ccncc1 | 28.7 | – | 10 | – | –
O=C(N/N=C/c1coc2ccccc2c1=O)c1ccncc1 | 82.2 | 80.1 | 54.2 | 5.3 | IC50 [2]: 42.4 µM; Activity [5]: inactive; Activity [6]: Active; Activity [7]: inactive; Activity [8]: Active; Activity [9]: Active; Activity [10]: Active; Activity [11]: Active; inhibition [12]: Active
O=C(N/N=C/c1ccccc1O)c1ccncc1 | 5.3 | 45.3 | 3 | – | –
O=C(N/N=C/c1c[nH]c2ccccc12)c1ccncc1 | 28.8 | 82.2 | 5.5 | 1.5 | –
O=C(N/N=C/c1ccc(F)cc1)c1ccncc1 | 8.1 | 4.6 | 16.3 | – | –
